Test results from patent US8058243B2, “Method for treating a brain cancer with ifenprodil” (HSC Research and Development Limited Partnership, priority 2006, dated 2011).
Counter-ions that a name gives are not always drawn. Like-named read-outs stand apart in the source and are kept apart here.

Test system: murine neural precursor cells (neurosphere cultures)
Experiment: HTS of LOPAC library against secondary neurosphere cultures, MTT proliferation assay at 3 μM, day 7 (z score, P value)
Format: cell-based, mouse
[1] = primary LOPAC screen, 3 μM, MTT, neurosphere proliferation
[2] = yes/no: significantly inhibited neurosphere proliferation in the primary screen
[3] = LOPAC library screen at 3 μM, secondary neurosphere cultures, MTT
[4] = LOPAC library screen, 3 μM, MTT, secondary neurosphere cultures, day 7
[5] = LOPAC primary screen, neurosphere MTT proliferation, 3 μM, day 7
[6] = yes/no: significantly inhibited neurosphere proliferation (P<0.01) in the primary screen
[7] = yes/no: significantly inhibited neurosphere proliferation (P<0.01) in primary screen
[8] = LOPAC screen, neurosphere MTT proliferation, 3 μM, day 7
[9] = LOPAC library screen, 3 μM, MTT, neurosphere cultures

N#C/C(=C\c1ccc(O)c(O)c1)C(=O)c1ccc(O)c(O)c1 [Tyrphostin AG 538]
Z Score: −0.3955 | Z score [1]: −0.395 | Activity [2]: no

N#C/C(=C\c1ccc(O)c(O)c1)C(=O)NCCCc1ccccc1 [Tyrphostin AG 555]
Z Score [3]: −0.6812 | Z score [1]: −0.681 | Activity [2]: no

C[C@H](NC(=O)/C(C#N)=C/c1ccc(O)c(O)c1)c1ccccc1 [Tyrphostin AG 835]
Z Score: 2.23 | Z score [1]: 2.230 | Activity [2]: no

CC(C)(C)c1cc(/C=C(\C#N)C(N)=S)cc(C(C)(C)C)c1O [Tyrphostin AG 879]
Z Score [4]: −1.607 | Z score [1]: −1.607 | Activity [2]: no

COc1cc2ncnc(Nc3cccc(Cl)c3)c2cc1OC [Tyrphostin AG 1478]
Z Score (LOPAC library screen at 3 μM, MTT, secondary neurosphere cultures, screened in singlets): 1.87 | Z score [5]: 1.870 | Activity [6]: no

N#CC(=C(/N)Sc1ccccc1N)/C(C#N)=C(/N)Sc1ccccc1N [U0126]
Z Score: 0.711 | Z score [1]: 0.711 | Activity [2]: no

COc1ccc2c(c1)CC[C@@H]1[C@@H]2CC[C@]2(C)[C@@H](NCCCCCCN3C(=O)C=CC3=O)CC[C@@H]12 [U-73122]
Activity [2]: no

C[C@]12C=CC(=O)C=C1CC[C@@H]1C2=CC[C@]2(C)[C@@H](C(=O)CN3CCN(c4cc(N5CCCC5)nc(N5CCCC5)n4)CC3)CC[C@@H]12.O=C(O)/C=C\C(=O)O [U-74389G maleate]
Z Score [4]: −8.942 | Z score [5]: −8.942 | Activity [6]: yes

CCCCC/C=C\C[C@@H](O)/C=C/c1cccc(C[C@@H](O)CCCCO)n1 [U-75302]
Z Score: −0.1722 | Z score [1]: −0.172 | Activity [2]: no

Cc1c(C)c2c(c(C)c1O)CCC(C)(CN1CCN(c3cc(N4CCCC4)nc(N4CCCC4)n3)CC1)O2.Cl.Cl (stereo not shown) [U-83836 dihydrochloride]
Z Score: 0.954 | Z score [5]: 0.954 | Activity [6]: no

CCCN(CCC)C1Cc2cc(OC)c(OC)cc2C1.O=C(O)/C=C\C(=O)O [U-99194A maleate]
Z Score: 1.255

CCCN(CCC)C1Cc2cc(OC)c(OC)cc2C1.O=C(O)/C=C\C(=O)O [U-99194A meleate]
Z score [5]: 1.255 | Activity [6]: no

CC(C)Oc1cccnc1N(C)C1CCN(Cc2ccccc2)CC1.O=C(O)/C=C\C(=O)O [U-101958 maleate]
Z Score: −2.065 | Z score [1]: −2.065 | Activity [2]: no

Brc1c(NC2=NCCN2)ccc2nccnc12 [UK 14,304]
Activity: no | Z Score: −0.2103 | Z score: −0.210

COc1ccccc1N1CCN(CCCNc2cc(=O)n(C)c(=O)n2C)CC1 [Urapidil hydrochloride]
Z Score (168 h, 3 µM): 0.1572 | Z score (168 h, 3 µM): 0.157 | Activity [2]: no

COc1ccccc1N1CCN(CCCNc2c(C)c(=O)n(C)c(=O)n2C)CC1 [Urapidil, 5-Methyl-]
Z Score [3]: −0.7831 | Z score [1]: −0.783 | Activity [2]: no

O=c1ccn([C@@H]2O[C@H](COP(=O)([O-])OP(=O)([O-])[O-])[C@@H](O)[C@H]2O)c(=O)[nH]1.[Na+].[Na+].[Na+] [Uridine 5′-diphosphate sodium]
Z Score (168 h, 3 µM): 0.7074 | Z score (168 h, 3 µM): 0.707 | Activity [2]: no

C[C@H](N)CN1CCc2ccc(Br)cc21.C[C@H](N)CN1CCc2ccc(Br)cc21.O=C(O)/C=C/C(=O)O [VER-3323 hemifumarate salt]
Z Score: −0.7614 | Z score [5]: −0.761 | Activity [7]: no

COc1ccccc1NC(=O)Nc1nc(-c2cccnc2)nc2ccccc12 [VUF 5574]
Z Score: 0.5811 | Z score [1]: 0.581 | Activity [2]: no

CCCC(CCC)C(=O)O.[Na] [Valproic acid sodium]
Z Score [3]: −0.09493 | Z score [5]: −0.095 | Activity (yes = significantly inhibited neurosphere proliferation (P<0.01) in the primary screen): no

CCN(CC)C(=O)c1ccc(O)c(OC)c1 [Vanillic acid diethylamide]
Z Score [3]: −0.5948 | Z score [8]: −0.595 | Activity [7]: no

CC[C@]1(O)C[C@H]2CN(CCc3c([nH]c4ccccc34)[C@@](C(=O)OC)(c3cc4c(cc3OC)N(C=O)[C@H]3[C@@](O)(C(=O)OC)[C@H](OC(C)=O)[C@]5(CC)C=CCN6CC[C@]43[C@@H]65)C2)C1 [Vincristine sulfate]
Z Score [4]: −10.79 | Z score [5]: −10.792 | Activity [6]: yes

CCOC(=O)C1=C[C@]2(CC)CCCN3CCc4c(n1c1ccccc41)[C@@H]32 [Vinpocetine]
Z Score [9]: 0.4329 | Z score [1]: 0.433 | Activity [2]: no

COc1ccccc1N1CCN(CCN(C(=O)C2CCCCC2)c2ccccn2)CC1.O=C(O)/C=C\C(=O)O [WAY-100635 maleate]
Z Score: −0.4965 | Z score [1]: −0.497 | Activity [2]: no

COc1cccc(OC)c1OCCNCC1COc2ccccc2O1.Cl (stereo not shown) [WB-4101 hydrochloride]
Z Score: −2.247 | Z score [8]: −2.247 | Activity [7]: no

C#C[C@]1(O)CC[C@H]2[C@@H]3CCC4=Cc5nc6nc7ccccc7n6cc5C[C@]4(C)[C@H]3CC[C@@]21C [WIN 62,577]
Z Score: 2.351 | Z score [1]: 2.351 | Activity [2]: no

COC[C@H]1OC(=O)c2coc3c2[C@@]1(C)C1=C(C3=O)[C@@H]2CCC(=O)[C@@]2(C)C[C@H]1OC(C)=O [Wortmannin from Penicillium funiculosum]
Z Score: 0.4079 | Z score [1]: 0.408 | Activity [2]: no

CC(Oc1ccc(Oc2cnc3ccc(Cl)cc3n2)cc1)C(=O)O (stereo not shown) [XK469]
Activity: yes | Z Score: −9.355 | Z score [5]: −9.355

O=C(NCCNCC(O)COc1ccc(O)cc1)N1CCOCC1 (stereo not shown) [Xamoterol hemifumarate]
Z Score (168 h, 3 µM): −0.1243 | Z score (168 h, 3 µM): −0.124 | Activity [2]: no

CCCn1c(=O)c2[nH]c(-c3ccc(OCC(=O)NCCN)cc3)nc2n(CCC)c1=O [Xanthine amine congener]
Z Score [9]: 0.001164 | Z score [1]: 0.001 | Activity [2]: no

Cc1cccc(C)c1N=C1NCCCS1 [Xylazine hydrochloride]
Z Score: 0.3755 | Z score [1]: 0.375 | Activity [2]: no

Cc1cc(C(C)(C)C)cc(C)c1CC1=NCCN1 [Xylometazoline hydrochloride]
Z Score: 0.296 | Z score [1]: 0.296 | Activity [2]: no

C[C@@H](N)[C@H]1CC[C@H](C(=O)Nc2ccncc2)CC1 [Y-27632 dihydrochloride]
Z Score (168 h, 3 µM): −0.1255 | Z score (168 h, 3 µM): −0.125 | Activity [7]: no

OCc1ccc(-c2nn(Cc3ccccc3)c3ccccc23)o1 [YC-1]
Z Score: 0.4335 | Z score [1]: 0.433 | Activity [2]: no

COc1ccc(CCN(C)CCc2ccc(OC)c(OC)c2)cc1OC.Cl [YS-035 hydrochloride]
Z Score: 0.04311 | Z score [5]: 0.043 | Activity [6]: no

COC(=O)[C@@H]1[C@H]2C[C@H]3c4[nH]c5ccccc5c4CCN3C[C@@H]2CC[C@@H]1O [Yohimbine hydrochloride]
Z Score (168 h, 3 µM): −1.656 | Z score (168 h, 3 µM): −1.656 | Activity [2]: no

O=C(N[C@@H](Cc1ccccc1)C(=O)CCl)OCc1ccccc1 [Z-L-Phe chloromethyl ketone]
Z Score: −2.901 | Z score [5]: −2.901 | Activity [6]: yes
